The results in this text go back to PMC13198257, “An aerosolized dual-action autotaxin inhibitor-PPARγ agonist for the treatment of pulmonary fibrosis” (Cell Reports Medicine, 2026).

Series [1] in a line: Mouse metabolic clearance and half-life in vitro.
Series [2] concerns the target T1, ATX (Homo sapiens, UniProt Q13822).
T1 construct: purchased Sino Biological 11308-H07H
In words: Mode of ATX inhibition, Lineweaver-Burk plots (various LPC concentrations). In kind it is biochemical. The procedure: To determine the mode of inhibition of ATX, various concentrations of TGZ, compound 5 and EL244 were tested against various LPC concentrations. Specifically, TGZ was tested against 6.25, 12.5, 25, 50 and 100 μM LPC, compound 5 was tested against 3.125, 6.25, 12.5, 25, 50 and 100 μM LPC, while EL244 was tested against 25, 50, 100 and 150 μM LPC. Lineweaver–Burk graphs depicting the reciprocal of velocity (1/V) against the reciprocal of substrate concentration (1/S) were plotted with GraphPad Software.

A short description of series [3]: Cytotoxicity in HepG2 hepatocytes. In kind it is cell-based. The following applies: human, HepG2 cells.
In series [4] the test system is BLM-induced pulmonary fibrosis. In words: BLM-induced pulmonary fibrosis model, inhaled drug. It is filed as in vivo, C57Bl/6 mice. The source says: BLM-induced pulmonary fibrosis was induced via the oropharyngeal aspiration of BLM (0.8 U/Kg).[54]^,[55]^,[141] The dose and route of administration have been selected following extensive local testing to minimise lethality while preserving a solid and reproducible fibrotic profile. Readout assays include weight and overall health status, pulmonary oedema and inflammation, collagen levels determination (soluble in BALFs, Q-RT-PCR and histology in lung tissue), lung histology with specialised stainings (Fast green/picrosirius red), as well as the measurement of respiratory functions (flexiVent, SQIREQ); a detailed protocol is publicly available at protocols.io.
Drug inhalation of compound 5 and EL244 to conscious, softly restrained mice was performed using the inExpose system (Scireq).[55] Compound 5 and EL244 were diluted in Kolliphor (15% and 10%, respectively) to final concentrations of 6.5 and 9.02 mg/mL, respectively. Volumes of 1 mL (for 5) and 0.6 mL (for EL244) were aerosolized over 10 and 15 min, respectively in groups of 6 mice, corresponding to a final estimated dose of 15mg/Kg per mouse. Control groups received an aerosolized solution of Kolliphor (10–15%) in saline.

Series [5] concerns the target T2, PPARγ LBD (Homo sapiens, UniProt P37231).
T2 construct: using recombinant PPARγ LBD protein dissolved in a buffer; made in house
T2 sequence (P37231 238-503 limits assumed): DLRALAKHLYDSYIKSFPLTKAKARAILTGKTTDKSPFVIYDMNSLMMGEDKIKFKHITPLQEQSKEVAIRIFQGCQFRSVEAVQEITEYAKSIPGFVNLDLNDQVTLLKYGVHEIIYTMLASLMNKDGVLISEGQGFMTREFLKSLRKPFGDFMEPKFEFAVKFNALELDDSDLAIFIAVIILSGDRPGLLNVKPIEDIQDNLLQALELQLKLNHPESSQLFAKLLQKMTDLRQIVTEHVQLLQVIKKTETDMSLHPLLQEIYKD
In words: Isothermal titration calorimetry (ITC). In kind it is binding. The settings on record: for Kd: PPARγ LBD, 25°C. The procedure:
ITC was performed[49] on a TA Instruments Affinity ITC (TA Instruments, New Castle, Delaware, USA), using recombinant PPARγ LBD protein dissolved in a buffer containing 25 mM HEPES, 150 mM KF, 5 mM DTT, 10% w/v glycerol and 1% DMSO at pH 7.5. […] The titration was performed at 25°C with a stirring rate of 75 rpm. An interval of 300 s was maintained between injections. ITC raw data were analyzed with the NanoAnalyze software package (version 3.7.5). An independent binding model was used to fit the reaction enthalpy (ΔH), binding affinity constant (KD), and stoichiometry (n). Free energy change (ΔG) was calculated with the equation ΔG = −RT ln K and the entropy (ΔS) was calculated with the equation ΔG = ΔH−TΔS.
For orientation: Isothermal titration calorimetry measures the heat released or taken up as one component is titrated into another.

The nature of series [6]: AMP membrane permeability. It is filed as in vitro ADME. The settings on record: 10 μΜ.
Series [7] has as its system choline oxidase and horseradish peroxidase. In words: Interference with the 2nd and 3rd reaction of the Amplex Red assay. It is filed as biochemical. The procedure: (§1) ATX inhibitory activity in vitro of examined compounds was assessed with the Amplex Red assay,[32]^,[35]^,[36] as recently published in detail.[37] The assay was done in Amplex Red Assay buffer (Tris 50 mM, CaCl2 5 mM, pH 8). Briefly, 50 μL of increasing concentrations of each compound were placed in separate wells of a black 96-well plate. […] 50 μL of the LPC-containing assay buffer (200 μM) were added to the wells and incubated for 30 min at 37°C to allow the enzyme to initially interact with its substrate. 50 μL of the detection mix (Amplex Red 200 μM, choline oxidase 0.4 U/mL, horseradish peroxidase 4 U/mL) were added to the plate wells. Fluorescence was measured in a Tecan M200 Fluorimeter using excitation at 530 nm and reading at 590 nm, every 5 min for 30 min. The velocity of the reaction and the remaining ATX activity were calculated at the linear phase of the reaction. Dose-response inhibition graphs were plotted with GraphPad Software.
Figure S3. Kinetic analysis of ATX inhibition. Related to Figures 3 and 4
(B) Kinetics for the second (oxidation of choline catalysed by choline oxidase) and third reaction (the conversion of the
Amplex substrate to the fluorescent resorufin catalysed by horseradish peroxidase, HRP) of the Amplex Red Lyso-
phospholipase D assay for representative compounds (TGZ, 4, 5 and EL244). The first reaction includes the conversion of
LPC to LPA catalysed by ATX.
Kinetic graphs are indicative of three technical replicates. […]

Series [8] deals with T1, ATX. In words: Amplex Red assay: ATX inhibitory activity in vitro. In kind it is biochemical. The following applies: in vitro; for IC50: Amplex Red assay. The procedure: as §1
[9] abbreviates: inhaled 15 mg/kg b.i.d., therapeutic mode from 7 days post-BLM.
Setting [10] is: inhaled 15 mg/kg o.d., prophylactic mode.
[11] abbreviates: inhaled 15 mg/kg o.d., therapeutic mode from day 7 post-BLM.

“Also recorded” adds a separate entry of the source.

A word on the half-life: it is the time in which the quantity being followed falls by half. As a reminder, the CC50 is the concentration giving 50% cytotoxicity. A low value points to harm at low concentration. For orientation: Kd means the equilibrium constant for the complex coming apart. Read a low Kd as tighter binding. In general, IC50 refers to the point on the concentration scale where inhibition reaches its midpoint. A higher IC50 goes with lower potency. As to `O=C1NC(=O)C(Cc2ccc(OCCN3CCN(C(=O)OCc4cc(Cl)cc(Cl)c4)CC3)cc2)S1` (stereo not drawn) [Compound 5, 3,5-dichlorobenzyl4-(2-(4-((2,4-dioxothiazolidin-5-yl)methyl)phenoxy)ethyl)piperazine-1-carboxylate], the half-life at 0.1 μM in series [1] was 21 min. Moreover, in series [2], the “Mode of ATX inhibition” value is “non-competitive”. This compound also displayed a CC50 in series [3] of 90300 nM. Further, in series [4] (setting [9]), the BALF inflammatory cells entry is reported as “decreased inflammatory cells”; the “BALF total protein (vascular leak, pulmonary edema)” value was “decreased total protein levels”; the “Decrease of BALF soluble collagen” value is given as “did not reach statistical significance”; the “Decrease of lung tissue Col1a1 mRNA” value was “did not reach statistical significance”. Moreover, in series [4] (setting [9]), the “Histology (H&E, fast green/Sirius red)” value is “fewer fibrotic regions and decreased collagen deposition”; the “Respiratory functions (Cst, Crs, A)” value was “efficiently attenuated the BLM-induced impairment of respiratory functions”. For the same compound, in series [5], the “Thermodynamics of binding to PPARγ-LBD” value is on record as “entropy-driven” and the affinity, expressed as Kd, was 600 nM. The AMP in series [6] was determined as 3.7e-06 cm/s. Also, in series [7], the “Interference on the 2nd and 3rd steps of the Amplex Red assay” value was “Minimal interference; also recorded: not involved at all in the second and third reaction”. In series [8], this compound gave an IC50 of 290 nM.

As a reminder, the microsomal CLint is the rate of metabolic loss divided by the concentration. A higher microsomal CLint goes with faster metabolism. In series [1], `O=C1NC(=O)C(Cc2ccc(OCCC3CCN(C(=O)OCc4cc(Cl)cc(Cl)c4)CC3)cc2)S1` (stereo not drawn) [EL244, 3,5-dichlorobenzyl 4-(2-(4-((2,4-dioxothiazolidin-5-yl)methyl)phenoxy)ethyl)piperidine-1-carboxylate] gave a half-life at 0.1 μM of 61 min and a microsomal CLint at 0.1 μM of 114 µL/min/mg. The “Mode of ATX inhibition” value in series [2] is “competitive”. The same compound yielded a CC50 in series [3] of 81200 nM. For the same compound, the “PPARγ target gene mRNA in lung tissue (RT-qPCR)” value in series [4] (BLM mice, inhaled EL244) was “marginal increases”. For the same compound, in series [4] (setting [10]), the BALF soluble collagen entry was “significantly reduced”; the Histology result was “attenuated collagen deposition and reduced fibrotic regions”; the “Inflammation (BALF inflammatory cells)” value is on record as “markedly reduced”; the “Lung tissue Col1a1 mRNA” value is on record as “significantly reduced”. Further, in series [4] (setting [10]), the “Pulmonary edema (BALF total protein)” value is given as “markedly reduced”. Also, in series [4] (inhaled 15 mg/kg o.d., prophylactic mode, 15 days from one day before BLM), the Respiratory functions entry is on record as “significantly improved respiratory functions”. In addition, in series [4] (setting [11]), the BALF soluble collagen entry is given as “significantly reducing”; the “Effect on inflammation (BALF inflammatory cells)” value is given as “did not reach statistical significance”; the Histopathology result is “reduced collagen deposition and fewer and smaller fibrotic regions”; the “Lung tissue Col1a1 expression” value was “significantly reducing”. In addition, in series [4] (setting [11]), the Respiratory functions result is “significantly restored all assessed respiratory functions” and the “Vascular permeability (BALF total protein)” value is recorded as “reduced vascular permeability”. For the same compound, in series [5], the “Thermodynamics of binding to PPARγ-LBD” value was “enthalpy-driven” and binding was characterised by a dissociation constant (Kd) of 1300 nM. In series [6], this compound yielded an AMP of 8e-07 cm/s. In series [7], the “Interference on the 2nd and 3rd steps of the Amplex Red assay” value is “not involved at all in the second and third reaction”. In series [8], the 50% inhibitory concentration (IC50) came out at 50 nM; the “ATX inhibitory effect, fold better than 5” value stood at 5 fold; the “ATX inhibitory effect, fold better than GLPG1690” value came to 3 fold; the “ATX inhibitory effect, fold better than TGZ” value is listed as 10 fold.
